Laboratory results published in patent US8158635B2, “Solid forms comprising 4-[9-(tetrahydro-furan-3-yl)-8-(2,4,6-trifluoro-phenylamino)-9H-purin-2-ylamino]-cyclohexan-1-ol, compositions thereof, and uses therewith” (Signal Pharmaceuticals, LLC, priority 2006, dated 2012).
Structures can show the parent of a compound that is named as a salt.

Legend:
[1] = Equilibration of solid form in solvent for 4 weeks at 40° C., resulting form by XRPD; type: physicochemical
Procedure: Equilibration slurry and evaporation experiments were carried out by adding an excess of Compound I free base or HCl salt to 2 mL of solvent. […] Upon reaching equilibrium, the saturated supernatant solution was removed and allowed to evaporate slowly in an open vial under nitrogen at 25° C. or 50° C., respectively. The slurry resulting from the equilibration was filtered and air-dried. X-ray powder diffraction (XRPD) measurements were performed in accordance with United States Pharmacopeia (USP) monograph <941> entitled “X-ray Diffraction” (See, e.g., The United States Pharmacopeia, The National Formulary, 2003, The Unites States Pharmacopeial Convention, Inc., Rockville, Md., 2002, which is herein incorporated by reference in its entirety). A Thermo ARL X'TRA X-ray powder diffractometer (Thermo Electron Corp., Waltham, Mass.), equipped with Nickel-filtered Cu Kα radiation at 1.54 Å, was used for XRPD measurements from about 1.5 °2θ to about 40 °2θ, with a step size of about 0.020°, a count time of about 0.50 seconds per step, and a step scan rate of about 2.40°/min. The instrument was equipped with a fine focus X-ray tube. The voltage and amperage were set at 45 kV and 40 mA, respectively. The divergence slits were set at 0.5 mm and 0.2 mm. Diffracted radiation was measured using a Peltier-cooled Si (Li) solid-state detector. Representative XRPD patterns were presented displaying intensity (counts per second) versus position (°2θ). A sintered alumina standard was used to check peak positions. Peak positions may vary from sample to sample by approximately ±0.1 °2θ. Variation in peak position may depend upon multiple factors, including particle size, sample preparation, data collection temperature and parameters. Variation in peak intensity may occur, e.g., as a result of preferred orientation and/or variation in crystal habit.

[2] = Storage stability at stress conditions (about 40° C. and about 75% RH); type: physicochemical; settings: about 40° C. and about 75% RH for about four weeks
Procedure: In certain embodiments, Form A of the HCl salt of Compound I is substantially pure. In certain embodiments, Form A of the HCl salt of Compound I is stable upon slurry in particular solvents at particular temperatures. For example, in certain embodiments, Form A of the HCl salt is stable in, e.g., acetone, acetonitrile, ethyl acetate, heptane, MTBE, toluene, THF and mixtures of two or more thereof at about 40° C. for about four weeks. In certain embodiments, Form A of the HCl salt is stable upon storage at particular stress conditions. For example, in certain embodiments, Form A of the HCl salt of Compound I is stable upon storage at about 40° C. and about 75% RH for about four weeks.

SMILES: OC1CCC(Nc2ncc3nc(Nc4c(F)cc(F)cc4F)n(C4CCOC4)c3n2)CC1 (stereo not shown) [Form A of the HCl salt of Compound I, 4-[9-(tetrahydro-furan-3-yl)-8-(2,4,6-trifluoro-phenylamino)-9H-purin-2-ylamino]-cyclohexan-1-ol]
- Resulting Form by XRPD ([1]; Equilibrate HCl salt Form A in 2-Propanol for 4 weeks at 40° C.): Compound I HCl Salt Form A
- Resulting Form by XRPD ([1]; Equilibrate HCl salt Form A in Acetonitrile for 4 weeks at 40° C.): Compound I HCl Salt Form A
- Resulting Form by XRPD ([1]; Equilibrate HCl salt Form A in Ethyl acetate for 4 weeks at 40° C.): Compound I HCl Salt Form A
- Resulting Form by XRPD ([1]; Equilibrate HCl salt Form A in Heptane for 4 weeks at 40° C.): Compound I HCl Salt Form A
- Resulting Form by XRPD ([1]; Equilibrate HCl salt Form A in MTBE for 4 weeks at 40° C.): Compound I HCl Salt Form A
- Resulting Form by XRPD ([1]; Equilibrate HCl salt Form A in THF for 4 weeks at 40° C.): Compound I HCl Salt Form A
- Resulting Form by XRPD ([1]; Equilibrate HCl salt Form A in Toluene for 4 weeks at 40° C.): Compound I HCl Salt Form A
- Resulting Form by XRPD ([1]; Equilibrate HCl salt in Acetone for 4 weeks at 40° C.): Compound I HCl Salt Form A
- stability upon slurry in solvents ([1]; acetone, acetonitrile, ethyl acetate, heptane, MTBE, toluene, THF and mixtures, about 40° C. for about four weeks): stable
- stability upon storage at stress conditions [2]: stable
